pIC50: −log10 of the molar value. Bounds are passed on as bounds.

T1 sequence (P12931 2-536 limits assumed): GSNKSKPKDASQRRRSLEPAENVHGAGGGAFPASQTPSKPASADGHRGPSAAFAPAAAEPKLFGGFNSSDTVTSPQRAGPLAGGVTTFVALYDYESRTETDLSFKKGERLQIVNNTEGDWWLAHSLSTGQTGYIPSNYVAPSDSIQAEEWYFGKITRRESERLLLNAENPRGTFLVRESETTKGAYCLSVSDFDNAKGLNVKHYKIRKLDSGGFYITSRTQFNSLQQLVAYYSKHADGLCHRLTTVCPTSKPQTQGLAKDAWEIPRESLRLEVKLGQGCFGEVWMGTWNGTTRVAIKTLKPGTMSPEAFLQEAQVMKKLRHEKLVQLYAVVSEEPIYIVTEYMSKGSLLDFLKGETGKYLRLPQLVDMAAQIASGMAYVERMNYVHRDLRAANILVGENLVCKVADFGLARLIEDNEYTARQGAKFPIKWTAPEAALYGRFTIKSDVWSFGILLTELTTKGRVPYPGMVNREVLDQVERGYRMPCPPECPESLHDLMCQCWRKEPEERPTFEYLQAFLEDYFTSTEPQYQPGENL

The first assay has as its target T1, Proto-oncogene tyrosine-protein kinase Src (Homo sapiens, UniProt P12931). Nature of the assay: (§1) Inhibition of Src protein tyrosine kinase.
Details: not given
For `COCCOc1cc2c(cc1OC)Cc1c(Nc3ccc(Cl)cc3Cl)ncnc1N2`, the pIC50 is 7.80.
On the same count and under the same terms, the value for `COCCOc1cc2c(cc1OC)Nc1ncnc(Nc3cc(OC)c(Cl)cc3Cl)c1C2` was 8.01; that for `COc1cc2ncc(C#N)c(Nc3ccc(Cl)cc3Cl)c2cc1OC` was 7.52; that for `COc1cc(Nc2ncnc3nc4cc(OC)c(OC)cc4cc23)c(Cl)cc1Cl` was under 5.00.
Still for that read-out and setting: with `COc1cc(Nc2ncnc3c2Cc2cc(OC)c(OC)cc2N3)c(Cl)cc1Cl` the figure was 8.48; with `COCCOc1cc2c(cc1OC)Cc1c(Nc3cc(OC)c(Cl)cc3Cl)ncnc1N2`, 8.64.
Same read-out and setting: the value for `COc1cc(Nc2c(C#N)cnc3cc(OC)c(OC)cc23)c(Cl)cc1Cl` was 8.37.

Another assay concerns the target T1, Proto-oncogene tyrosine-protein kinase Src. The assay is described as §1. The following applies: concentration not given here.
In the case of `COCCOc1cc2nc3ncnc(Nc4cc(OC)c(Cl)cc4Cl)c3cc2cc1OC`, the inhibition worked out at 35%.

For orientation: pIC50 means the IC50 on a negative log10 scale, so that one unit is a factor of ten. A higher pIC50 goes with a small IC50. By inhibition is commonly meant the relative decrease from the control value, in per cent.

These data come from ChEMBL document CHEMBL1136195, “Inhibition of Src kinase activity by 4-anilino-5,10-dihydro-pyrimido[4,5-b]quinolines” (Bioorg Med Chem Lett, 2003).
